Source: patent US9290777B2, “Putative cytokinin receptor and methods for use thereof” (NATIONAL UNIVERSITY OF SINGAPORE, priority 2007, dated 2016)

System: ARR5
Assay: qRT-PCR of cytokinin responsive gene after BA pulse, fold change vs untreated wild type
Format: cell-based, Arabidopsis thaliana
Experimental: For quantitative real-time PCR (qRT-PCR) analysis of cytokinin-inducible gene expression, seeds were germinated on MS medium with 3% (w/v) sucrose and grown for 6 days. Cytokinin treatment was carried out by incubating seedlings in the same MS+sucrose liquid medium (no agar) supplemented with 0, 0.01, 0.1, 1 or 5 μM [solubilized in 0.1% dimethylsulfoxide (DMSO) and diluted with the MS medium] for 5 min, 15 min, 30 min or 1 h. The control seedlings were incubated with DMSO (0.1%, the concentration used to dissolve cytokinins for the treatment) for the corresponding durations and used for expression analysis. Before RNA preparation, WT, OE and AS seedlings were pooled and stored in RNAlater solution (Qiagen, Valencia, Calif.). Total RNA was extracted using the Rneasy Plant Mini Kit (Qiagen). SYBRgreen RT-PCR reagents (Applied Biosystems) were used to synthesize double-stranded cDNA. The number of transcripts present in biological replicates each of WT, OE and AS seedlings, with or without BA and DMSO, was determined from three independent replicates. Fold induction of the transcripts was calculated according to the manufacturer's instructions (ABI Prism 7700 Sequence Detection System, User Bulletin #2).

SMILES: c1ccc(CNc2ncnc3nc[nH]c23)cc1 [benzyladenine]
- ARR5 fold change (BA 0.01 μM, 5 min, AS1, ↑ up): 4.33↑
- ARR5 fold change (BA 0.01 μM, 5 min, AS8, ↑ up): 6.12↑
- ARR5 fold change (BA 0.01 μM, 5 min, AS21, ↑ up): 8.2↑
- ARR5 fold change (BA 0.01 μM, 5 min, OE1, ↓ down): 4.51↓
- ARR5 fold change (BA 0.01 μM, 5 min, OE12, ↓ down): 5.87↓
- ARR5 fold change (BA 0.01 μM, 5 min, OE18, ↓ down): 7.33↓
- ARR5 fold change (BA 0.01 μM, 5 min, Wild type, ↑ up): 3.55↑
- ARR5 fold change (BA 0.01 μM, 15 min, AS1, ↑ up): 4.77↑
- ARR5 fold change (BA 0.01 μM, 15 min, AS8, ↑ up): 6.68↑
- ARR5 fold change (BA 0.01 μM, 15 min, AS21, ↑ up): 8.58↑
- ARR5 fold change (BA 0.01 μM, 15 min, OE1, ↓ down): 4.33↓
- ARR5 fold change (BA 0.01 μM, 15 min, OE12, ↓ down): 5.55↓
- ARR5 fold change (BA 0.01 μM, 15 min, OE18, ↓ down): 7.03↓
- ARR5 fold change (BA 0.01 μM, 15 min, Wild type, ↑ up): 3.64↑
- ARR5 fold change (BA 0.01 μM, 30 min, AS1, ↑ up): 5.01↑
- ARR5 fold change (BA 0.01 μM, 30 min, AS8, ↑ up): 6.82↑
- ARR5 fold change (BA 0.01 μM, 30 min, AS21, ↑ up): 8.79↑
- ARR5 fold change (BA 0.01 μM, 30 min, OE1, ↓ down): 4.11↓
- ARR5 fold change (BA 0.01 μM, 30 min, OE12, ↓ down): 5.21↓
- ARR5 fold change (BA 0.01 μM, 30 min, OE18, ↓ down): 6.91↓
- ARR5 fold change (BA 0.01 μM, 30 min, Wild type, ↑ up): 4.11↑
- ARR5 fold change (BA 0.01 μM, 1 h, AS1, ↑ up): 5.11↑
- ARR5 fold change (BA 0.01 μM, 1 h, AS8, ↑ up): 7.16↑
- ARR5 fold change (BA 0.01 μM, 1 h, AS21, ↑ up): 9.15↑
- ARR5 fold change (BA 0.01 μM, 1 h, OE1, ↓ down): 3.91↓
- ARR5 fold change (BA 0.01 μM, 1 h, OE12, ↓ down): 4.96↓
- ARR5 fold change (BA 0.01 μM, 1 h, OE18, ↓ down): 6.63↓
- ARR5 fold change (BA 0.01 μM, 1 h, Wild type, ↑ up): 4.3↑
- ARR5 fold change (BA 0.1 μM, 5 min, AS1, ↑ up): 5.34↑
- ARR5 fold change (BA 0.1 μM, 5 min, AS8, ↑ up): 7.32↑
- ARR5 fold change (BA 0.1 μM, 5 min, AS21, ↑ up): 9.31↑
- ARR5 fold change (BA 0.1 μM, 5 min, OE1, ↓ down): 4.1↓
- ARR5 fold change (BA 0.1 μM, 5 min, OE12, ↓ down): 4.71↓
- ARR5 fold change (BA 0.1 μM, 5 min, OE18, ↓ down): 6.69↓
- ARR5 fold change (BA 0.1 μM, 5 min, Wild type, ↑ up): 4.66↑
- ARR5 fold change (BA 0.1 μM, 15 min, AS1, ↑ up): 5.59↑
- ARR5 fold change (BA 0.1 μM, 15 min, AS8, ↑ up): 7.49↑
- ARR5 fold change (BA 0.1 μM, 15 min, AS21, ↑ up): 9.46↑
- ARR5 fold change (BA 0.1 μM, 15 min, OE1, ↓ down): 4.04↓
- ARR5 fold change (BA 0.1 μM, 15 min, OE12, ↓ down): 4.63↓
- ARR5 fold change (BA 0.1 μM, 15 min, OE18, ↓ down): 6.51↓
- ARR5 fold change (BA 0.1 μM, 15 min, Wild type, ↑ up): 4.78↑
- ARR5 fold change (BA 0.1 μM, 30 min, AS1, ↑ up): 5.89↑
- ARR5 fold change (BA 0.1 μM, 30 min, AS8, ↑ up): 7.73↑
- ARR5 fold change (BA 0.1 μM, 30 min, AS21, ↑ up): 9.68↑
- ARR5 fold change (BA 0.1 μM, 30 min, OE1, ↓ down): 3.9↓
- ARR5 fold change (BA 0.1 μM, 30 min, OE12, ↓ down): 4.4↓
- ARR5 fold change (BA 0.1 μM, 30 min, OE18, ↓ down): 6.23↓
- ARR5 fold change (BA 0.1 μM, 30 min, Wild type, ↑ up): 4.95↑
- ARR5 fold change (BA 0.1 μM, 1 h, AS1, ↑ up): 6.07↑
- ARR5 fold change (BA 0.1 μM, 1 h, AS8, ↑ up): 8.04↑
- ARR5 fold change (BA 0.1 μM, 1 h, AS21, ↑ up): 9.97↑
- ARR5 fold change (BA 0.1 μM, 1 h, OE1, ↓ down): 3.67↓
- ARR5 fold change (BA 0.1 μM, 1 h, OE12, ↓ down): 4.01↓
- ARR5 fold change (BA 0.1 μM, 1 h, OE18, ↓ down): 6.01↓
- ARR5 fold change (BA 0.1 μM, 1 h, Wild type, ↑ up): 5.06↑
- ARR5 fold change (BA 1.0 μM, 5 min, AS1, ↑ up): 6.62↑
- ARR5 fold change (BA 1.0 μM, 5 min, AS8, ↑ up): 8.59↑
- ARR5 fold change (BA 1.0 μM, 5 min, AS21, ↑ up): 9.99↑
- ARR5 fold change (BA 1.0 μM, 5 min, OE1, ↓ down): 3.96↓
- ARR5 fold change (BA 1.0 μM, 5 min, OE12, ↓ down): 3.99↓
- ARR5 fold change (BA 1.0 μM, 5 min, OE18, ↓ down): 5.36↓
- ARR5 fold change (BA 1.0 μM, 5 min, Wild type, ↑ up): 5.21↑
- ARR5 fold change (BA 1.0 μM, 15 min, AS1, ↑ up): 6.88↑
- ARR5 fold change (BA 1.0 μM, 15 min, AS8, ↑ up): 8.93↑
- ARR5 fold change (BA 1.0 μM, 15 min, AS21, ↑ up): 10.12↑
- ARR5 fold change (BA 1.0 μM, 15 min, OE1, ↓ down): 3.71↓
- ARR5 fold change (BA 1.0 μM, 15 min, OE12, ↓ down): 3.46↓
- ARR5 fold change (BA 1.0 μM, 15 min, OE18, ↓ down): 5.21↓
- ARR5 fold change (BA 1.0 μM, 15 min, Wild type, ↑ up): 5.46↑
- ARR5 fold change (BA 1.0 μM, 30 min, AS1, ↑ up): 6.93↑
- ARR5 fold change (BA 1.0 μM, 30 min, AS8, ↑ up): 9.09↑
- ARR5 fold change (BA 1.0 μM, 30 min, AS21, ↑ up): 10.35↑
- ARR5 fold change (BA 1.0 μM, 30 min, OE1, ↓ down): 3.49↓
- ARR5 fold change (BA 1.0 μM, 30 min, OE12, ↓ down): 3.77↓
- ARR5 fold change (BA 1.0 μM, 30 min, OE18, ↓ down): 5.01↓
- ARR5 fold change (BA 1.0 μM, 30 min, Wild type, ↑ up): 5.79↑
- ARR5 fold change (BA 1.0 μM, 1 h, AS1, ↑ up): 7.31↑
- ARR5 fold change (BA 1.0 μM, 1 h, AS8, ↑ up): 9.17↑
- ARR5 fold change (BA 1.0 μM, 1 h, AS21, ↑ up): 10.76↑
- ARR5 fold change (BA 1.0 μM, 1 h, OE1, ↓ down): 3.21↓
- ARR5 fold change (BA 1.0 μM, 1 h, OE12, ↓ down): 3.52↓
- ARR5 fold change (BA 1.0 μM, 1 h, OE18, ↓ down): 4.72↓
- ARR5 fold change (BA 1.0 μM, 1 h, Wild type, ↑ up): 6.07↑
- ARR5 fold change (BA 5.0 μM, 5 min, AS1, ↑ up): 7.01↑
- ARR5 fold change (BA 5.0 μM, 5 min, AS8, ↑ up): 9.56↑
- ARR5 fold change (BA 5.0 μM, 5 min, AS21, ↑ up): 10.43↑
- ARR5 fold change (BA 5.0 μM, 5 min, OE1, ↓ down): 3.19↓
- ARR5 fold change (BA 5.0 μM, 5 min, OE12, ↓ down): 3.59↓
- ARR5 fold change (BA 5.0 μM, 5 min, OE18, ↓ down): 4.25↓
- ARR5 fold change (BA 5.0 μM, 5 min, Wild type, ↑ up): 6.72↑
- ARR5 fold change (BA 5.0 μM, 15 min, AS1, ↑ up): 7.31↑
- ARR5 fold change (BA 5.0 μM, 15 min, Wild type, ↑ up): 6.99↑
- ARR5 fold change (BA 5.0 μM, 1 h, AS1, ↑ up): 7.86↑
- ARR5 fold change (BA 5.0 μM, 1 h, AS8, ↑ up): 10.05↑
- ARR5 fold change (BA 5.0 μM, 1 h, AS21, ↑ up): 10.93↑
- ARR5 fold change (BA 5.0 μM, 1 h, OE1, ↓ down): 2.54↓
- ARR5 fold change (BA 5.0 μM, 1 h, OE12, ↓ down): 2.78↓
- ARR5 fold change (BA 5.0 μM, 1 h, OE18, ↓ down): 3.89↓
- ARR5 fold change (BA 5.0 μM, 1 h, Wild type, ↑ up): 7.24↑
